≈ marks a conversion by molar mass, not a printed value.
How the values were obtained:
[1] = tested on: Staphylococcus aureus (ATCC 43300); assay: Antibacterial MIC, broth microdilution (CLSI); type: cell-based; settings: for S. aureus Selectivity Indices, Group / S. aureus Selectivity Index (SI): SI, IC50 (μM)/MIC80 (μM), HEK293 cytotoxicity; for MIC80: Staphylococcus aureus, ATCC43300, read-out: MIC80 S. aureus; for S. aureus Selectivity Index (SI): numeric value
[2] = tested on: C. neoformans (F10025); settings: Cryptococcus neoformans, read-out: MIC99 C. neoformans
Protocol: (§2) The Minimum Inhibitory Concentration (MIC, at 99% inhibition) of the compounds was determined using the broth microdilution method as recommended by EUCAST (EUCAST Definitive Document E.DEF 9.3.2, Method for the determination of broth dilution minimum inhibitory concentrations of antifungal agents for conidia forming moulds and EUCAST Definitive Document E.DEF 7.3.2 Method for the determination of broth dilution minimum inhibitory concentrations of antifungal agents for yeasts).

[3] = tested on: Escherichia coli (ATCC 25922); assay: Antibacterial MIC, broth microdilution (CLSI); type: cell-based; settings: Escherichia coli, ATCC25922; read-out: MIC80 E. coli
[4] = tested on: Enterococcus faecalis (ATCC 51299); assay: Antibacterial MIC, broth microdilution (CLSI); type: cell-based; settings: for MIC80: Enterococcus faecalis, ATCC51299, read-out: MIC80 E. faecalis
[5] = tested on: Candida auris (H.17.157); settings: for MIC99: Candidozyma auris, read-out: MIC99 Candida auris; for C. auris Selectivity Indices, Group: SI, IC50 (μM)/MIC99 (μg/mL), HEK293 cytotoxicity, Alkyl Amidines and NH Pyrroles
Protocol: as §2

[6] = tested on: T. vaginalis; assay: Trichomonas resorufin assay; type: cell-based; settings: Trichomonas vaginalis, read-out: IC50 T. vaginalis
[7] = tested on: A. fumigatus A1160 (MFIG001); settings: Aspergillus fumigatus, read-out: MIC99 A. fumigatus A1160
[8] = tested on: T. equiperdum; assay: Resazurin-based (Alamar blue) drug sensitivity assay; settings: Trypanosoma equiperdum, read-out: IC50 T. equiperdum
Protocol: A detailed description of the procedure for evaluating activity against trypanosomes, using an Alamar Blue (resazurin) assay, is described below.
The bloodstream form (BSF) T. b. brucei s427 (see De Koning, H. P. et al., Mol. Biochem. Parasitol. 2000, 106, 181-185), T. evansi AntTat 3/3 (see Dean, S. et al., Proc. Natl. Acad. Sci. USA, 2013, 110, 14741-14746), and T. equiperdum (see Stewart, M. L. et al., Eukaryot. Cell, 2010, 9, 336-343) were cultured in HMI-9 medium (Life Technologies, Paisley, United Kingdom) supplemented with 10% heat inactivated Foetal Bovine Serum (FBS (PAA Laboratories Linz, Austria)), 14 μL/L β-mercaptoethanol (BDH, Dorset, UK), and 3.0 g/L NaHCO3 (Sigma-Aldrich) and adjusted to pH 7.4. These cell lines were maintained at 37° C. in a humidified, 5% CO2 environment.
A resazurin-based (Alamar blue) drug sensitivity assay was used to assess and compare the activity of standard trypanocides in the different cell lines investigated (see Gould, M. K. et al., Anal. Biochem., 2008, 382, 87-93). Briefly, 23 doubling dilutions of the test compound of the invention, starting at 100 μM, and a compound-free control were prepared in 100 μL medium in a 96-well white plate (Greiner Bio-one, Frickenhausen, Germany). The cells were adjusted to 2×10^4 cells/mL for T. b. brucei and T. equiperdum; 4×10^4 cells/mL for T. evansi; and 5×10^5 cells/mL for T. congolense in the appropriate medium. 100 μL of the adjusted cells was then added to the wells containing drug dilutions and incubated for 48 h under respective culture condition. Thereafter, 20 μL of 125 mg/mL resazurin sodium dye was added, and the plate was incubated for a further 24 h.

[9] = tested on: Candida glabrata (ACPF3309); settings: for MIC99: Nakaseomyces glabratus, read-out: MIC99 Candida glabrata; for C. glabrata Selectivity Indices, Group: Alkyl Amidines and NH Pyrroles
[10] = tested on: T. evansi AntTat 3/3; assay: Resazurin-based (Alamar blue) drug sensitivity assay; settings: read-out: IC50 T. evansi
[11] = tested on: Rhizopus arrhizus (NEQAS12.35321); settings: read-out: MIC99 Rhizopus arrhizus
[12] = tested on: PolyAU double stranded RNA; assay: Fluorescence intercalator displacement (FID) assay, SYBR-safe probe; settings: 20 μM compound, 30° C., lower % = stronger binding
How it was run: (§1)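 Probe displacement was measured at 30 °C in 1 mM phosphate pH 7.4 containing SybrSafe (12500-fold dilution), 3.76 ng/mL nucleic acid (salmon dsDNA or polyAU dsRNA) and 20 μM compound. Fluorescence loss is normalised between probe-only and probe-plus-nucleic-acid controls.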

[13] = tested on: Genomic double stranded DNA (salmon); assay: as above; settings: 20 μM compound, 30° C., lower % = stronger binding
How it was run: as §1

[14] = tested on: SARS-CoV-2 (hCoV-19/Australia/VIC01/2020); assay: SARS-CoV-2 microplaque inhibition assay in Vero-E6 cells; type: cell-based
[15] = tested on: Influenza (H1N1); assay: Accelerated Viral Neuraminidase Inhibition Assay (AVINA), A549 cells; type: cell-based; settings: Influenza A virus, 72 h
[16] = SI, IC50 (μM)/MIC99 (μg/mL), HEK293 cytotoxicity

Row | Structure (SMILES) | MIC80 [1] | MIC99 [2] | MIC80 [3] | MIC80 [4] | MIC99 [5] | MIC99 [7] | IC50 [8] | MIC99 [9] | IC50 [10] | MIC99 [11] | % Normalised Fluorescence with polyAU RNA [12] | % Normalised Fluorescence with gDNA [13] | S. aureus Selectivity Indices, Group ([1]; Alkyl Amidines and NH Pyrroles) | S. aureus Selectivity Index (SI) [1] | C. auris Selectivity Indices, Group [5] | C. glabrata Selectivity Indices, Group [9, 16] | further results
1 | CCCCCCCCCC[N+](C)(C)CCNC(=O)c1cc(NC(=O)c2cc(NC(=O)c3ccc(/C=C/c4cnc5ccccc5c4)cc3)cn2C)cn1C [Ic9, (E)-N,N-dimethyl-N-(2-(1-methyl-4-(1-methyl-4-(4-(2-(quinolin-3-yl)vinyl)benzamido)-1H-pyrrole-2-carboxamido)-1H-pyrrole-2-carboxamido)ethyl)decan-1-aminium] | < 5 µM | 5 to 25 µg/mL | > 100 µM | 5 to 25 µM | > 50 µg/mL | > 50 µg/mL | 100 to 1000 nM | > 50 µg/mL | 10 to 100 nM | > 50 µg/mL |  |  |  |  |  |  | S. aureus Selectivity Indices, Group ([1]; Quaternary ammoniums): B (Group B: 2 < SI <= 5); E. faecalis Selectivity Indices, Group ([4]; SI, IC50 (μM)/MIC80 (μM), HEK293 cytotoxicity, Quaternary ammoniums): B (Group B: 0.7 < SI <= 2); IC50 [6]: 5 to 50 µM
2 | N=C(N)CCNC(=O)c1cc(NC(=O)c2cc(NC(=O)c3ccc(/C=C/c4ccc5nonc5c4)cc3)c[nH]2)c[nH]1 [IIIa8, (E)-N-(3-amino-3-iminopropyl)-4-(4-(4-(2-(benzo[c][1,2,5]oxadiazol-5-yl)vinyl)benzamido)-1H-pyrrole-2-carboxamido)-1H-pyrrole-2-carboxamide] | 25 to 100 µM (≈ 13.8 to 55.2 µg/mL) | 5 to 25 µg/mL (≈ 9.07 to 45.3 µM) | > 100 µM | > 100 µM | > 50 µg/mL | > 50 µg/mL | < 10 nM | > 50 µg/mL | 10 to 100 nM | > 50 µg/mL | 10% | 31% |  |  |  |  | 
3 | CN(C)c1ccc(/C=C/c2ccc(C(=O)Nc3cc(C(=O)Nc4c[nH]c(C(=O)NCCC(=N)N)c4)n(C)c3)cn2)cc1 [IIIa7, (E)-N-(5-((5-((3-amino-3-iminopropyl)carbamoyl)-1H-pyrrol-3-yl)carbamoyl)-1-methyl-1H-pyrrol-3-yl)-6-(4-(dimethylamino)styryl)nicotinamide] | < 5 µM | < 5 µg/mL | 25 to 100 µM (≈ 14.2 to 56.8 µg/mL) | 5 to 25 µM (≈ 2.84 to 14.2 µg/mL) | 5 to 25 µg/mL (≈ 8.81 to 44 µM) | 5 to 25 µg/mL (≈ 8.81 to 44 µM) | > 1000 nM | < 5 µg/mL | > 1000 nM | 5 to 25 µg/mL (≈ 8.81 to 44 µM) | 20% | 13% | D (D: SI > 10) | 14 | C (Group C 1 < SI <= 3) | B (Group B: 12 < SI <= 20) | SARS-CoV-2 Selectivity Indices, Group ([14]; SI, IC50 (μM)/IC50 (μM), HEK293 cytotoxicity, Alkyl Amidines and NH Pyrroles): C (Group C: 10 < SI <= 25); SARS-CoV-2 Selectivity Index (SI) ([14]; SI, IC50 (μM)/IC50 (μM), HEK293 cytotoxicity, numeric value): 24; IC50 ([14]; Severe acute respiratory syndrome coronavirus 2, Vero C1008, plaque inhibition, Vero-E6 cells, read-out: IC50 SARS-CoV-2): < 2000 nM
4 | Cn1cc(NC(=O)c2cc(NC(=O)c3ccc(/C=C/c4cnc5ccccc5c4)cc3)c[nH]2)cc1C(=O)NCCC(=N)N [IIIa4, (E)-N-(3-amino-3-iminopropyl)-1-methyl-4-(4-(4-(2-(quinolin-3-yl)vinyl)benzamido)-1H-pyrrole-2-carboxamido)-1H-pyrrole-2-carboxamide] | < 5 µM | < 5 µg/mL | 25 to 100 µM (≈ 14.4 to 57.5 µg/mL) | < 5 µM | 25 to 50 µg/mL (≈ 43.5 to 87 µM) | 5 to 25 µg/mL (≈ 8.7 to 43.5 µM) | < 10 nM | < 5 µg/mL | 10 to 100 nM | 5 to 25 µg/mL (≈ 8.7 to 43.5 µM) | 3% | 14% | D (D: SI > 10) | 81 | C (Group C 1 < SI <= 3) | D (Group D: SI > 50) | E. faecalis Selectivity Indices, Group ([4]; SI, IC50 (μM)/MIC80 (μM), HEK293 cytotoxicity, Alkyl Amidines and NH Pyrroles): D (D: SI > 10); E. faecalis Selectivity Index (SI) ([4]; SI, IC50 (μM)/MIC80 (μM), HEK293 cytotoxicity, numeric value): 41; C. glabrata Selectivity Index (SI) ([9]; SI, IC50 (μM)/MIC99 (μg/mL), HEK293 cytotoxicity, numeric value): 652
5 | Cn1cc(NC(=O)c2cc(NC(=O)c3ccc(/C=C/c4cnc5ccccc5c4)cc3)c[nH]2)cc1C(=O)NCCN1CCOCC1 [IIIb8, (E)-1-methyl-N-(2-morpholinoethyl)-4-(4-(4-(2-(quinolin-3-yl)vinyl)benzamido)-1H-pyrrole-2-carboxamido)-1H-pyrrole-2-carboxamide] | < 5 µM |  | > 100 µM | > 100 µM |  |  | < 10 nM |  | 10 to 100 nM |  | 26% | 37% |  |  |  |  | inhibition at 20 µM [15]: > 50%

— patent publication US20250313546A1, “NUCLEIC ACID BINDERS” (UNIVERSITY OF STRATHCLYDE, priority 2022, published 2025)
